Measured values reported in US20120202840A1, “Use of Flubendazole and Vinca Alkaloids for Treatment of Hematological Diseases” (priority 2009, published 2012).

Tests used:
OCI-AML2 cells [1] = test system: OCI-AML2 cells
Method: Sub-lethally irradiated SCID mice were injected subcutaneously with OCI-AML2 cells (n=20; 10 per group). After implantation, mice were treated with 50 mg/kg flubendazole (A), 20 mg/kg flubendazole (B), or vehicle control by intraperitoneal injection daily. Tumor volume was measured over time. After 16 days (20 mg/kg dose) or 18 days (50 mg/kg dose), mice were sacrificed and tumors were excised, measured and weighted.
Sub-lethally irradiated SCID mice were injected subcutaneously with OCI-AML2 cells (n=40; 10 per group). […] After 16 (C) or 18 (D) days, mice were sacrificed and tumors were excised, measured and weighted. Data represent the mean±SD tumor weight.
Sub-lethally irradiated SCID mice were injected subcutaneously in the left flank with leukemia OCI-AML2 (2.0×10^6) or myeloma OPM2 (1.0×10^7) cells. Mice were then randomly assigned to receive flubendazole (in 0.9% NaCl and 0.01% tween-80) or vehicle control (0.9% NaCl and 0.01% tween-80) intraperitoneally. […] Tumor volumes (tumor length×width^2×0.5236) were monitored daily using calipers. At the end of the experiment (16-18 days), mice were sacrificed, tumors excised and tumor volume and weight measured. All animal studies were carried out according to the regulations of the Canadian Council on Animal Care and with the approval of the local ethics review board.

KB-3-1 = experiment: MTS assay, KB-3-1 wild type; assay type: cell-based; details: Homo sapiens; KB-3-1, MTS assay, 3 replicates
Method: Next, whether microtubule inhibition was functionally important for flubendazole's cytotoxicity was determined.
(§1) Leukemia (U937, MDAY, CEM, CEM-VBL) and solid tumor cell lines (PPC-1, HeLa) were cultured in RPMI 1640 medium. The epidermoid carcinoma cell lines KB-3-1 and KB-4.0-HTI^23 were grown in Dulbecco's Modified Eagle Medium. The lung carcinoma cell lines A549 and A549.EpoB40 were grown in RPMI with the latter supplemented with 20% fetal calf serum (FCS), and 40 nM epothilone B.^24 Leukemia cell lines OCI-AML2, CEM, and NB4 and all the myeloma cell lines (OPM2, KMS11, JJN3 LP1, H929, L1, KMS12, KSM18 and OCI My5) were maintained in Iscove's Modified Dulbecco's Medium (IMDM). TEX cells were maintained in IMDM, 15% FCS, 1% penicillin-streptomycin, 2 mM L-glutamine, 20 ng/mL SCF, 2 ng/mL IL-3. Unless otherwise noted, all media were supplemented with 10% FCS, 100 units/mL of streptomycin and 100 μg/mL of penicillin (all from Hyclone, Logan, Utah). Cells were incubated in a humidified air atmosphere containing 5% CO2 at 37° C.
Cell growth and viability was measured using the 3-(4,5-dimethylthiazol-2-yl)-5-(3-carboxymethoxyphenyl)-2-(4-sulfophenyl)-2H-tetrazolium inner salt (MTS) reduction assay (Promega, Madison, Wis.) according to the manufacture's protocol and as previously described^25. […] Optical density (OD) was measured at 490 nm.

bovine tubulin = experiment: Site of binding to tubulin (colchicine-tubulin fluorescence); details: tubulin 5.0 μM, 100 μM drug 30 min, then colchicine 10 μM 60 min
Method: (C) Tubulin (5.0 μM) was incubated for 30 min with 100 μM vinblastine, 100 μM flubendazole, or buffer control. […] A representative figure is shown.
The site of flubendazole binding was determined similar to Gupta et al^19. Bovine tubulin (5.0 μM) was incubated with 100 μM flubendazole, 100 μM vinblastine or buffer control for 30 min at 37° C.

OCI-AML2 cells [2] = experiment: Radioactive glucose uptake assay; assay type: cell-based; details: concentrations up to 4.0 μM, 16 hours
Method: (A) OCI-AML2 cells were incubated with increasing concentrations of flubendazole for 16 h and the uptake of 3H-deoxy-D-glucose was measured as in the materials and methods. Data represent the mean±SD glucose uptake. A representative experiment is shown.
The effect of flubendazole on the uptake of 2-deoxy-D-glucose in OCI-AML2 cells was performed using a radioactive glucose uptake assay as described by Wood et al^27. […] Uptake of 2-deoxy-D-glucose was initiated by the addition of 10 μM 2-deoxy-D-glucose and 1 μCi/mL 2-[^3H]deoxy-D-glucose in the HEPES-buffered saline solution at room temperature. After 5 min of incubation, 2-deoxy-D-glucose uptake was terminated by rinsing the cells three times with a 25 mM ice-cold glucose solution, followed by cell disruption with 0.05 N NaOH. Protein concentration was measured by the modified Bradford protein assay and cell-associated radioactivity was determined by scintillation counting. The mean counts per minute are expressed as picomoles/min/mg protein.

PPC-1 cells = experiment: Microtubules in cultured cells (confocal microscopy); assay type: cell-based; details: PPC-1, 1.0 μM, 24 hours
Method: (D) PPC-1 cells were treated with 1.0 μM flubendazole (i) or control (ii) for 24 h and stained with DAPI and an anti α-tubulin AlexaFluor 488 nm antibody. Images were captured using an Olympus Fluorview confocal microscope at room temperature. Representative confocal micrographs at 40× are shown.
PPC-1 cells (5.0×10^3) were seeded on glass cover slips in a 6 well plate overnight at 37° C. and then treated with 1.0 μM flubendazole or vehicle control for 24 h. Cells were then fixed in 3.7% paraformeldehyde for 15 min at 37° C., permeabilized using 0.1% triton X-100 for 4 min at room temperature, and incubated at 4° C. overnight in a humidified chamber with a blocking solution (0.5% BSA). Cells were then incubated with a primary mouse anti α-tubulin antibody (clone DMIA, 1:300, in 0.5% BSA; Sigma) for 1 hour at 37° C., washed 3 times in PBS and subsequently incubated with a goat anti-mouse IgG, AlexaFluor 488 secondary antibody (1:500, Sigma) for 1 hour in the dark at room temperature. Cells were then washed, stained with 4′,6-diamidino-2-phenylindole (DAPI) and mounted on a microscope slide using Dakocytomation fluorescent mounting media (Dakocytamation, Carpinteria, Calif.). Slides were imaged using the Olympus Fluoview FV1000 Laser Scanning Confocal Microscope (Olympus America Inc., Center Valley, Pa.) at room temperature at 40×.

CEM = experiment: MTS cell growth and viability assay, CEM; assay type: cell-based; details: Homo sapiens, CCRF-CEM, 3 replicates
Method: as §1
Cell growth and viability was measured using the 3-(4,5-dimethylthiazol-2-yl)-5-(3-carboxymethoxyphenyl)-2-(4-sulfophenyl)-2H-tetrazolium inner salt (MTS) reduction assay (Promega, Madison, Wis.) according to the manufacture's protocol and as previously described^25. Cells were seeded in 96 well plates and treated with drug for 72 h. Optical density (OD) was measured at 490 nm.

[3] = OCI-AML2 xenograft, 20 or 50 mg/kg daily intraperitoneally, vs vehicle, p<0.0001

## COC(=O)Nc1nc2ccc(C(=O)c3ccc(F)cc3)cc2[nH]1 [flubendazole]
OCI-AML2 cells [1]; [3]
  tumor growth: significantly delayed tumor growth
  tumor weights: reduced tumor weights
OCI-AML2 cells [1]; mouse, in vivo
  weight loss, behavioral changes or gross organ toxicity: no evidence of weight loss, behavioral changes or gross organ toxicity
KB-3-1
  IC50: 1900 ± 1100 nM
Bovine tubulin
  colchicine fluorescence (colchicine binding to tubulin): decreased colchicine fluorescence
OCI-AML2 cells [2]
  uptake of 3H-deoxy-D-glucose: did not alter glucose uptake
PPC-1 cells
  microtubule architecture in intact cells: disrupts the microtubule architecture
CEM
  IC50: 1900 ± 900 nM
